# Test results published in patent publication US4742045A, “Glycopeptide antibiotics” (SmithKline Beckman Corporation, priority 1986, dated 1988).
# Read-outs that look alike come from different tables or passages of the source.
# Key:
# [1] = test system: Staphylococcus aureus; test: standard microtiter assay, minimum inhibitory concentration; type: cell-based
# Description: (§1) Representative results of standard microtiter assays are reported in Tables 1, 2 and 3 which follow, as the minimum inhibitory concentration of antibiotic (μg/ml).
# (§2) In Table 1, test organisms 1-13 were different strains of Staphylococcus aureus, and 14-16 were different strains of Staphylococcus epidermidis. In Table 2, test organisms 1-5 were different strains of S. aureus; 6, 8, 12 and 14 were different strains of S. epidermidis; 7 was a Staphylococcus haemolyticus; 9 and 10 were different strains of Streptococcus faecalis; 11 was a Streptococcus pyogenes; and 13 was a Staphylococcus saprophyticus. In Table 3, test organisms 1-3 were different strains of S. aureus; 4 and 6 were different strains of S. epidermidis; 5 was a S. haemolyticus and 7 and 8 were different strains of Streptococcus faecalis. Except where individual components are indicated, the CWI-785 antibiotic employed was the CWI-785 complex; in some cases, HCl salts of the CWI-785 antibiotic were employed.
# (§3) The number of strains tested is shown in parentheses below each organism. The average MIC is reported in μg/ml.
# (§4) In Table 5 are shown data from standard microtiter assays carried out in a presence of no serum, 50% human serum (hum.) and 50% mouse serum (mse.). The test organisms were 1: S. aureus; 2,4 and 5: different strains of S. epidermidis; 3: S. haemolyticus; 6: S. saprophyticus; 7 and 8: different strains of S. faecalis.
# [2] = test system: Streptococcus faecalis; test: as above; type: cell-based
# Description: as §1, §2, §3, §4
# [3] = test system: Staphylococcus epidermidis; test: as above; type: cell-based; conditions: Staphylococcus epidermidis
# Description: as §1, §2, §4
# [4] = test system: Staphylococcus haemolyticus; test: as above; type: cell-based; conditions: Staphylococcus haemolyticus
# Description: as §1, §2, §4
# [5] = test system: Staphylococcus saprophyticus; test: as above; type: cell-based; conditions: Staphylococcus saprophyticus
# Description: as §1, §2, §4
# [6] = test system: Streptococcus pyogenes; test: as above; type: cell-based; conditions: Streptococcus pyogenes, read-out: minimum inhibitory concentration
# Description: as §1, §2
# [7] = test system: Coag-neg. Staphylococci; test: MIC against an expanded panel; type: cell-based; conditions: Table 4, Coag-neg. Staphylococci (24 strains)
# Description: as §3
# [8] = test system: Group A Strep.; test: MIC against an expanded panel; type: cell-based; conditions: Table 4, Group A Strep. (6 strains)
# Description: as §3
# [9] = test system: Group B Strep.; test: MIC against an expanded panel; type: cell-based; conditions: Table 4, Group B Strep. (4 strains)
# Description: as §3
# [10] = test system: JK Diptheroids; test: MIC against an expanded panel; type: cell-based; conditions: Table 4, JK Diptheroids (19 strains)
# Description: as §3
# [11] = test system: Viridans; test: MIC against an expanded panel; type: cell-based; conditions: Table 4, Viridans (2 strains)
# Description: as §3
# [12] = test system: S. aureus; test: mice infected intraperitoneally, dosed 1 hr after infection, ED50; type: in vivo; conditions: Staphylococcus aureus, 1 h, antibiotic i.v. 1 hr post infection
# Description: (§5) The in vivo activity of the CWI-785 complex and its components and hydrolysis products was confirmed by administering selected CWI-785 antibiotics to mice infected with various gram-positive pathogens. In one representative assay, in which mice infected intraperitoneally with 46.8 LD50 's of S. aureus (strain 1, Tables 1 and 2) were dosed once, subcutaneously one hour after infection, the following ED50 's (mg/kg) were observed: CWI-785B: 2.4, CWI-785C: 3.1, CWI-785: 3.8, HPB3: 0.9, vancomycin: 0.7. In a second representative assay carried out as above except that mice were infected with 3.17 LD50 's of S. faecalis (strain 9, Table 2), the following ED50 's were observed: HPB3 hydrochloride: 1.6, HPB4 hydrochloride: 1.6, vancomycin: 2.2, teicoplanin: 1.3.
# (§6) In Table 6, below, is shown the ED50 in mg/kg of HPB4 in comparison to vancomycin and teicoplanin. Mice were injected i.p. with the indicated organism and then i.v., 1 hr post infection, with the indicated antibiotic.
# [13] = test system: S. faecalis; test: as above; type: in vivo; conditions: Enterococcus faecalis, 1 h
# Description: as §5, §6
# [14] = test system: S. epidermidis; test: mice infected i.p., antibiotic i.v. 1 hr post infection, ED50; type: in vivo; conditions: Staphylococcus epidermidis, 1 h
# Description: as §6
# [15] = test system: STAPH. AUREUS HH 127; test: prophylactic activity, dosing preinfection; type: in vivo, mice; conditions: for ED50: Staphylococcus aureus, in Mus musculus
compound,measurement,setting,value
"CN[C@H](CC(C)C)C(=O)N[C@H]1C(=O)N[C@@H](CC(N)=O)C(=O)N[C@H]2C(=O)N[C@H]3C(=O)N[C@H](C(=O)N[C@H](C(=O)O)c4cc(O)cc(O)c4-c4cc3ccc4O)[C@H](O)c3ccc(c(Cl)c3)Oc3cc2cc(c3O[C@@H]2O[C@H](CO)[C@@H](O)[C@H](O)[C@H]2O[C@H]2C[C@](C)(N)[C@H](O)[C@H](C)O2)Oc2ccc(cc2Cl)[C@H]1O [Vancomycin, vancomycin]",MIC50,[1]; Staphylococcus aureus,1.6 µg/mL
same,MIC,"[1]; Staphylococcus aureus, Table 5 organism 1 S. aureus, 50% Hum. Serum",3.1 µg/mL
same,MIC,"[1]; Staphylococcus aureus, Table 5 organism 1 S. aureus, 50% Mse. Serum",1.6 µg/mL
same,MIC,"[1]; Staphylococcus aureus, Table 5 organism 1 S. aureus, No Serum",1.6 µg/mL
same,MIC,"[1]; Staphylococcus aureus, read-out: minimum inhibitory concentration, Table 1 test organism 1, S. aureus strain",1.6 µg/mL
same,MIC,"[1]; Staphylococcus aureus, read-out: minimum inhibitory concentration, Table 1 test organism 2, S. aureus strain",1.6 µg/mL
same,MIC,"[1]; Staphylococcus aureus, read-out: minimum inhibitory concentration, Table 1 test organism 3, S. aureus strain",1.6 µg/mL
same,MIC,"[1]; Staphylococcus aureus, read-out: minimum inhibitory concentration, Table 1 test organism 4, S. aureus strain",1.6 µg/mL
same,MIC,"[1]; Staphylococcus aureus, read-out: minimum inhibitory concentration, Table 1 test organism 5, S. aureus strain",1.6 µg/mL
same,MIC,"[1]; Staphylococcus aureus, read-out: minimum inhibitory concentration, Table 1 test organism 6, S. aureus strain",1.6 µg/mL
same,MIC,"[1]; Staphylococcus aureus, read-out: minimum inhibitory concentration, Table 1 test organism 7, S. aureus strain",3.1 µg/mL
same,MIC,"[1]; Staphylococcus aureus, read-out: minimum inhibitory concentration, Table 1 test organism 8, S. aureus strain",1.6 µg/mL
same,MIC,"[1]; Staphylococcus aureus, read-out: minimum inhibitory concentration, Table 1 test organism 9, S. aureus strain",1.6 µg/mL
same,MIC,"[1]; Staphylococcus aureus, read-out: minimum inhibitory concentration, Table 1 test organism 10, S. aureus strain",1.6 µg/mL
same,MIC,"[1]; Staphylococcus aureus, read-out: minimum inhibitory concentration, Table 1 test organism 11, S. aureus strain",1.6 µg/mL
same,MIC,"[1]; Staphylococcus aureus, read-out: minimum inhibitory concentration, Table 1 test organism 12, S. aureus strain",1.6 µg/mL
same,MIC,"[1]; Staphylococcus aureus, read-out: minimum inhibitory concentration, Table 1 test organism 13, S. aureus strain",0.8 µg/mL
same,MIC,"[1]; Staphylococcus aureus, read-out: minimum inhibitory concentration, Table 2 test organism 1, S. aureus strain",1.6 µg/mL
same,MIC,"[1]; Staphylococcus aureus, read-out: minimum inhibitory concentration, Table 2 test organism 2, S. aureus strain",1.6 µg/mL
same,MIC,"[1]; Staphylococcus aureus, read-out: minimum inhibitory concentration, Table 2 test organism 3, S. aureus strain",1.6 µg/mL
same,MIC,"[1]; Staphylococcus aureus, read-out: minimum inhibitory concentration, Table 2 test organism 4, S. aureus strain",1.6 µg/mL
same,MIC,"[1]; Staphylococcus aureus, read-out: minimum inhibitory concentration, Table 2 test organism 5, S. aureus strain",1.6 µg/mL
same,MIC RANGE,"[1]; Table 4, S. aureus (30 strains)",1.6 to 6.3 µg/mL
same,MIC50,[2]; Enterococcus faecalis,0.4 µg/mL
same,MIC,"[2]; Enterococcus faecalis, Table 5 organism 7 S. faecalis, 50% Hum. Serum",3.1 µg/mL
same,MIC,"[2]; Enterococcus faecalis, Table 5 organism 7 S. faecalis, 50% Mse. Serum",6.3 µg/mL
same,MIC,"[2]; Enterococcus faecalis, Table 5 organism 7 S. faecalis, No Serum",1.6 µg/mL
same,MIC,"[2]; Enterococcus faecalis, Table 5 organism 8 S. faecalis, 50% Hum. Serum",3.1 µg/mL
same,MIC,"[2]; Enterococcus faecalis, Table 5 organism 8 S. faecalis, 50% Mse. Serum",6.3 µg/mL
same,MIC,"[2]; Enterococcus faecalis, Table 5 organism 8 S. faecalis, No Serum",1.6 µg/mL
same,MBC,"[2]; Enterococcus faecalis, read-out: MBC50",50 µg/mL
same,MIC,"[2]; Enterococcus faecalis, read-out: minimum inhibitory concentration, Table 2 test organism 9, Streptococcus faecalis strain",1.6 µg/mL
same,MIC,"[2]; Enterococcus faecalis, read-out: minimum inhibitory concentration, Table 2 test organism 10, Streptococcus faecalis strain",1.6 µg/mL
same,MIC RANGE,"[2]; Table 4, Strep. faecalis (12 strains)",0.4 to 0.8 µg/mL
same,MIC,"[3]; Table 5 organism 2 S. epidermidis, 50% Hum. Serum",3.1 µg/mL
same,MIC,"[3]; Table 5 organism 2 S. epidermidis, 50% Mse. Serum",3.1 µg/mL
same,MIC,"[3]; Table 5 organism 2 S. epidermidis, No Serum",1.6 µg/mL
same,MIC,"[3]; Table 5 organism 4 S. epidermidis, 50% Hum. Serum",3.1 µg/mL
same,MIC,"[3]; Table 5 organism 4 S. epidermidis, 50% Mse. Serum",3.1 µg/mL
same,MIC,"[3]; Table 5 organism 4 S. epidermidis, No Serum",1.6 µg/mL
same,MIC,"[3]; Table 5 organism 5 S. epidermidis, 50% Hum. Serum",≤ 0.1 µg/mL
same,MIC,"[3]; Table 5 organism 5 S. epidermidis, 50% Mse. Serum",3.1 µg/mL
same,MIC,"[3]; Table 5 organism 5 S. epidermidis, No Serum",1.6 µg/mL
same,MIC,"[3]; read-out: minimum inhibitory concentration, Table 1 test organism 14, S. epidermidis strain",1.6 µg/mL
same,MIC,"[3]; read-out: minimum inhibitory concentration, Table 1 test organism 15, S. epidermidis strain",3.1 µg/mL
same,MIC,"[3]; read-out: minimum inhibitory concentration, Table 1 test organism 16, S. epidermidis strain",1.6 µg/mL
same,MIC,"[3]; read-out: minimum inhibitory concentration, Table 2 test organism 6, S. epidermidis strain",1.6 µg/mL
same,MIC,"[3]; read-out: minimum inhibitory concentration, Table 2 test organism 8, S. epidermidis strain",1.6 µg/mL
same,MIC,"[3]; read-out: minimum inhibitory concentration, Table 2 test organism 12, S. epidermidis strain",1.6 µg/mL
same,MIC,"[3]; read-out: minimum inhibitory concentration, Table 2 test organism 14, S. epidermidis strain",1.6 µg/mL
same,MIC,"[4]; Table 5 organism 3 S. haemolyticus, 50% Hum. Serum",3.1 µg/mL
same,MIC,"[4]; Table 5 organism 3 S. haemolyticus, 50% Mse. Serum",6.3 µg/mL
same,MIC,"[4]; Table 5 organism 3 S. haemolyticus, No Serum",3.1 µg/mL
same,MIC,"[4]; read-out: minimum inhibitory concentration, Table 2 test organism 7, Staphylococcus haemolyticus",3.1 µg/mL
same,MIC,"[5]; Table 5 organism 6 S. saprophyticus, 50% Hum. Serum",3.1 µg/mL
same,MIC,"[5]; Table 5 organism 6 S. saprophyticus, 50% Mse. Serum",6.3 µg/mL
same,MIC,"[5]; Table 5 organism 6 S. saprophyticus, No Serum",1.6 µg/mL
same,MIC,"[5]; read-out: minimum inhibitory concentration, Table 2 test organism 13, Staphylococcus saprophyticus",1.6 µg/mL
same,MIC,[6],0.8 µg/mL
same,MIC RANGE,[7],0.4 to 6.3 µg/mL
same,MIC50,[7]; read-out: MIC50,3.1 µg/mL
same,MIC RANGE,[8],0.04 to 0.8 µg/mL
same,MIC50,[8]; read-out: MIC50,0.4 µg/mL
same,MIC RANGE,[9],0.4 to 0.8 µg/mL
same,MIC RANGE,[10],0.8 to 1.6 µg/mL
same,MIC50,[10]; read-out: MIC50,1.6 µg/mL
same,MIC RANGE,[11],0.05 to 0.8 µg/mL
same,ED50,[12]; S. aureus 2620 (24 × LD50) i.p.,1.4 mg/kg
same,ED50,[12]; S. aureus HH 127 (35 × LD50) i.p.,0.4 mg/kg
same,ED50,[13],1.3 mg/kg
same,ED50,[14],< 1.25 mg/kg
same,ED50,[15]; iv,0.156 mg/kg
same,ED50,[15]; sc,0.31 mg/kg
same,PERCENT SURVIVAL,"[15]; Table 7: 40 mg/kg, 4 hr preinfection, S.C.",20%
same,PERCENT SURVIVAL,"[15]; Table 8: 40 mg/kg (I.V.), 6 hr preinfection",10%
